Earlier results in US20180228837A1, “STABLE IODINE SOLUTIONS WITH MEDICAL APPLICATIONS” (priority 2017, published 2018).
Like-named read-outs stand apart in the source and are kept apart here.

Experiments:
dermal wounds = dermal wounds of rabbits
[1] = tested on: wound chambers and full thickness wounds; details: rats; injected in one area of the body, healing at distant areas
[2] = tested on: wound chambers and full thickness wounds; details: mice; injected in one area of the body, healing at distant areas
[3] = tested on: wound chambers and full thickness wounds; details: pigs; injected in one area of the body, healing at distant areas
wounds = details: diabetic rats; collagen membrane material
ischemic open wounds = ischemic open wounds in rats; compared with vehicle alone or untreated wounds

Substance: copper complex of a glycyl-L-histidyl-L-lysine peptide [GHK-Cu]
- wound healing (dermal wounds): facilitated wound healing
- systemic enhancement of healing [1]: induce a systemic enhancement of healing
- systemic enhancement of healing [2]: induce a systemic enhancement of healing
- systemic enhancement of healing [3]: induce a systemic enhancement of healing
- wound contraction and epithelization (wounds): faster wound contraction and epithelization
- concentration of metalloproteinases 2 and 9 and of TNF-beta (ischemic open wounds): decreased
- wound healing (ischemic open wounds): healed faster
